Test results from patent publication US20080009418A1, “Selective Inhibitors” (Alchemia LTD., priority 2004, published 2008).

Tests used:
Human δ-opioid (DOP) = biological target: T1, Human δ-opioid (DOP) (Homo sapiens, UniProt P41143); assay: Radioligand binding, human δ-opioid (DOP) membranes, FlashPlate, [3H]-Bremazocine; conditions: compound at 10 μM; human δ-opioid (DOP) membranes
T1 construct: purchased Perkin Elmer Biosignal
Summary of the method: (§1)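 Cloned human receptor membranes were coated onto FlashPlate wells and incubated with radioligand and compound (added from a 0.5 mM DMSO daughter plate) for 1 hour at room temperature in the dark. Scintillation counting gave percent inhibition, with DMSO defining total and reference ligand defining non-specific binding.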

Human κ-Opioid (KOP) = biological target: T2, Human κ-Opioid (KOP) (Homo sapiens, UniProt P41145); assay: Radioligand binding, human κ-opioid (KOP) membranes, filtration, [3H]-Diprenorphine; conditions: compound at 10 μM; human κ-opioid (KOP) membranes
T2 construct: purchased Perkin Elmer Biosignal
Summary of the method: (§2)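 Filtration binding on cloned human receptor membranes (1 Unit/well), [125I]-Substance P for NK1 and [3H]-Diprenorphine for KOP, 1 h at room temperature. Filters PEI-presoaked, washed with cold 50 mM Tris-HCl pH 7.4, counted by scintillation; percent inhibition calculated, reference ligand defining non-specific binding.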

Human Melanocortin (MC3) = biological target: T3, Human Melanocortin (MC3) (Homo sapiens, UniProt P41968); assay: Radioligand binding, human melanocortin MC3 membranes, FlashPlate, [125I]-NDP-αMSH; conditions: compound at 10 μM; human melanocortin MC3 membranes
T3 construct: purchased Perkin Elmer Biosignal
Summary of the method: as §1

Human Melanocortin (MC4) = biological target: T4, Human Melanocortin (MC4) (Homo sapiens, UniProt P32245); assay: Radioligand binding, human melanocortin MC4 membranes, FlashPlate, [125I]-NDP-αMSH; conditions: compound at 10 μM; human melanocortin MC4 membranes
T4 construct: purchased Perkin Elmer Biosignal
Summary of the method: as §1

Human melanocortin (MC5) = biological target: T5, Human melanocortin (MC5) (Homo sapiens, UniProt P33032); assay: Radioligand binding, human melanocortin MC5 membranes, FlashPlate, [125I]-NDP-αMSH; conditions: compound at 10 μM; human melanocortin MC5 membranes
T5 construct: purchased Perkin Elmer Biosignal
Summary of the method: as §1

[1] = biological target: T6, Human melanin-concentrating hormone (MCH1) (Homo sapiens, UniProt Q99705); assay: Radioligand binding, human melanin-concentrating hormone MCH1 membranes, FlashPlate, [125I]-S36057; conditions: compound at 10 μM; human MCH1 membranes
T6 construct: purchased Perkin Elmer Biosignal
Summary of the method: as §1

Human μ-opioid (MOP) = biological target: T7, Human μ-opioid (MOP) (Homo sapiens, UniProt P35372); assay: Radioligand binding, human μ-opioid (MOP) membranes, FlashPlate, [3H]-Naloxone; conditions: compound at 10 μM; human μ-opioid (MOP) membranes
T7 construct: purchased Perkin Elmer Biosignal
Summary of the method: as §1

Human neurokinin (NK1) = biological target: T8, Human neurokinin (NK1) (Homo sapiens, UniProt P25103); assay: Radioligand binding, human neurokinin NK1 membranes, filtration, [125I]-Substance P; conditions: compound at 10 μM; human neurokinin NK1 membranes
T8 construct: purchased Perkin Elmer Biosignal
Summary of the method: as §2

[2] = biological target: T9, Human neuropeptide Y (NPY-Y1) (Homo sapiens, UniProt P25929); assay: Radioligand binding, human neuropeptide Y NPY-Y1 membranes, FlashPlate, [125I]-PYY; conditions: compound at 10 μM; human NPY-Y1 membranes
T9 construct: purchased Perkin Elmer Biosignal
T9 sequence (P25929 1-384): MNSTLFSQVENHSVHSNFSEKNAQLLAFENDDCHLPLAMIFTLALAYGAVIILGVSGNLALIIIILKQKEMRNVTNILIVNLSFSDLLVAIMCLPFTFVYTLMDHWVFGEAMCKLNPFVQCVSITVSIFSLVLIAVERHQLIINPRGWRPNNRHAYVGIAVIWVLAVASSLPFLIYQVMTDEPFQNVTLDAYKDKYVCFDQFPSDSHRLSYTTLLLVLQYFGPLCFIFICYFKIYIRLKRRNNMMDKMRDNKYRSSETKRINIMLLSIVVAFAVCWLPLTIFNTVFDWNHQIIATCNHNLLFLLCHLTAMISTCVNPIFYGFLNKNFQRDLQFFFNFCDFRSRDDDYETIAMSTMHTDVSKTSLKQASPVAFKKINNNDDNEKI
Summary of the method: as §1

Human opioid (ORL1) = biological target: T10, Human opioid (ORL1) (Homo sapiens, UniProt P41146); assay: Radioligand binding, human opioid ORL1 membranes, FlashPlate, [125I]-Nociceptin; conditions: compound at 10 μM; human ORL1 membranes
T10 construct: purchased Perkin Elmer Biosignal
Summary of the method: as §1

Mouse urotensin (mUR2) = biological target: T11, Mouse urotensin (mUR2) (Mus musculus, UniProt Q8VIH9); assay: Radioligand binding, mouse urotensin mUR2 membranes, FlashPlate, [125I]-Urotensin II; conditions: compound at 10 μM; mouse urotensin mUR2 membranes
T11 construct: purchased Perkin Elmer Biosignal
T11 sequence (Q8VIH9 1-385): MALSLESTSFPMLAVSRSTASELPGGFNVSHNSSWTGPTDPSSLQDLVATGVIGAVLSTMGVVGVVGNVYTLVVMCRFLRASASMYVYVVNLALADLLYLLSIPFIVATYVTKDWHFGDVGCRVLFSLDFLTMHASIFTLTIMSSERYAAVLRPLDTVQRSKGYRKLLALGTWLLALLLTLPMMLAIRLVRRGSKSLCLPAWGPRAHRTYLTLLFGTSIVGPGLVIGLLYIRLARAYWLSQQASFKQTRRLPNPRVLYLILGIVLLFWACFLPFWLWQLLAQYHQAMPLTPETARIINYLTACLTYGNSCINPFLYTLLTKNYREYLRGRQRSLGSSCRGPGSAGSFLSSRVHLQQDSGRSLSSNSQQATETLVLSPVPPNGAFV
Summary of the method: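 Cloned mouse urotensin (mUR2) receptor membranes from Perkin Elmer Biosignal were immobilized in FlashPlate microplates using a proprietary coating. Each well got 19.5 μl buffer, then 0.5 μl of DMSO, reference ligand, or compound. Adding 5 μl of [125I]-Urotensin II, diluted to 5× final concentration in binding buffer, started binding. Plates were sealed with TopSeal-A and incubated 1 hour at room temperature in the dark. Wells were counted for 30 seconds each on a TopCount after a 60-second delay, and percentage inhibition was calculated.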

T6 sequence (Q99705 whole entry): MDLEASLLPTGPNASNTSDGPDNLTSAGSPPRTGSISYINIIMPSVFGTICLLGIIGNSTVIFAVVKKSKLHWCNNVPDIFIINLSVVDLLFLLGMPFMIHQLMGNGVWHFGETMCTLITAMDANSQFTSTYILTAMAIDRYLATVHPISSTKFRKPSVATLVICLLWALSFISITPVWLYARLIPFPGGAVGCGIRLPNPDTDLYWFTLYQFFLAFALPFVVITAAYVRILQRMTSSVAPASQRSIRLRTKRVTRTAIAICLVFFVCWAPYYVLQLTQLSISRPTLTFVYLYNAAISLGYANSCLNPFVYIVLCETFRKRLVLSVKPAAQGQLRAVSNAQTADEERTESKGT
T1 sequence (P41143 whole entry): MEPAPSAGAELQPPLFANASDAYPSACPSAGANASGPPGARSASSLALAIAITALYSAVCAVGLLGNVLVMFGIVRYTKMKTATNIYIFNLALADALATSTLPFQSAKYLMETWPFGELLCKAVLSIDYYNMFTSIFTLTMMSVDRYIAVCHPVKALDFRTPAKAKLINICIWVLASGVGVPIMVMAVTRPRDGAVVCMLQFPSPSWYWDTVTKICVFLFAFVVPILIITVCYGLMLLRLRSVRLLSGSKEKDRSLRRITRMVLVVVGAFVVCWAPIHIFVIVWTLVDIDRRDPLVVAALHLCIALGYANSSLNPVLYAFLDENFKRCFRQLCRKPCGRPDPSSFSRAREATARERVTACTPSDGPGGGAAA
T3 sequence (P41968 whole entry): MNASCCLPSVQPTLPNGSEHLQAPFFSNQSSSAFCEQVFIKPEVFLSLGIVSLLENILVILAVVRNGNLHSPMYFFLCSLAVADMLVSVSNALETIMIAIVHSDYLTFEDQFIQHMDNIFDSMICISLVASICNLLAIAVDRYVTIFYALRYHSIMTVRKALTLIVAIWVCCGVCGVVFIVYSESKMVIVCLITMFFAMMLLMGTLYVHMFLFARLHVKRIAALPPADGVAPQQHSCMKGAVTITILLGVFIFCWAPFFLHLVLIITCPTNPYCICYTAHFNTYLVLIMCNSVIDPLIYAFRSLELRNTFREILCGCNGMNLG
T7 sequence (P35372 whole entry): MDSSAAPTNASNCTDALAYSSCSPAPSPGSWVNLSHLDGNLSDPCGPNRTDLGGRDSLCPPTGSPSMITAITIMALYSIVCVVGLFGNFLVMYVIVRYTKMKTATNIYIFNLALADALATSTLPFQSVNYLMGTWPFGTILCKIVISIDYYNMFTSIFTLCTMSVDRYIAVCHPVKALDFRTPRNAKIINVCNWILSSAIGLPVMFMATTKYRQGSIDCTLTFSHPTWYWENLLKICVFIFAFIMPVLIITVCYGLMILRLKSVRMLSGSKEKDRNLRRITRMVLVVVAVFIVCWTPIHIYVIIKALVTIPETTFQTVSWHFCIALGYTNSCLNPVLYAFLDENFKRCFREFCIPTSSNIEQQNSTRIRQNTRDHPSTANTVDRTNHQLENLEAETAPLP
T8 sequence (P25103 whole entry): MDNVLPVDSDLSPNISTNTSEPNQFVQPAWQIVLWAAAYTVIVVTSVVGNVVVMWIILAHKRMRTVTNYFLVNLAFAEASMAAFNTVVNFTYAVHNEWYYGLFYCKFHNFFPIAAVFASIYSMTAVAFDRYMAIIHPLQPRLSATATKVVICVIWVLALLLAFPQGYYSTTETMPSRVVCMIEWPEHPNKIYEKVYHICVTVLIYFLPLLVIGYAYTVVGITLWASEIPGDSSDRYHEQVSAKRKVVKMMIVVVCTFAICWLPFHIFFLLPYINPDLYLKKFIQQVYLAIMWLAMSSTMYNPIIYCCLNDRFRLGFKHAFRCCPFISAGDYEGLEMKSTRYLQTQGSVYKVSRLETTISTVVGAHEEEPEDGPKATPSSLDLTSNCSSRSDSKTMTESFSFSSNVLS
T4 sequence (P32245 whole entry): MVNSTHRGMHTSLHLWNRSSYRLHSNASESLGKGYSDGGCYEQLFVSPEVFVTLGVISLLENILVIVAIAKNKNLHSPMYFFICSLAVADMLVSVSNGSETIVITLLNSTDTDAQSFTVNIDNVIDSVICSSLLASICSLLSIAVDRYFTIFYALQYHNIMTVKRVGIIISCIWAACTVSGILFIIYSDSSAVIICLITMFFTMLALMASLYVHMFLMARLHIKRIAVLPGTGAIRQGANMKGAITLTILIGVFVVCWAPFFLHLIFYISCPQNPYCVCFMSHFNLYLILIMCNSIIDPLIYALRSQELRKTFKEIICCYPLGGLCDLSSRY
T5 sequence (P33032 whole entry): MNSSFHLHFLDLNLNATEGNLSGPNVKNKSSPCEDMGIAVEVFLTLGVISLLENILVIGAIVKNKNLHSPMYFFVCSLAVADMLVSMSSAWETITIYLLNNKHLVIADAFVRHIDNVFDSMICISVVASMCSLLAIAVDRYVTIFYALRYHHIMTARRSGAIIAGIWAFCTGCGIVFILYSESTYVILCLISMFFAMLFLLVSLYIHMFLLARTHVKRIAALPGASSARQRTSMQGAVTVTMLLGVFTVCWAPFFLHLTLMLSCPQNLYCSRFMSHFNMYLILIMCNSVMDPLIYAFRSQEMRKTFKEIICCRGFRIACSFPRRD
T10 sequence (P41146 whole entry): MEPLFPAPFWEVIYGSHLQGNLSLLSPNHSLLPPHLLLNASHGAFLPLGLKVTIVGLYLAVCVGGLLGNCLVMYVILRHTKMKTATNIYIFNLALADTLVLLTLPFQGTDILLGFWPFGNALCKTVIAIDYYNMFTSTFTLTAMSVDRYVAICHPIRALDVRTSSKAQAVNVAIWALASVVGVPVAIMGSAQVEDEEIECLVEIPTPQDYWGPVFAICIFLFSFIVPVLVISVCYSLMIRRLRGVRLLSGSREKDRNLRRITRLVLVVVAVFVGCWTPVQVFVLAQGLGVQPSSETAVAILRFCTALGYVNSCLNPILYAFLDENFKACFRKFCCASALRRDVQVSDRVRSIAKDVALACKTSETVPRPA
T2 sequence (P41145 whole entry): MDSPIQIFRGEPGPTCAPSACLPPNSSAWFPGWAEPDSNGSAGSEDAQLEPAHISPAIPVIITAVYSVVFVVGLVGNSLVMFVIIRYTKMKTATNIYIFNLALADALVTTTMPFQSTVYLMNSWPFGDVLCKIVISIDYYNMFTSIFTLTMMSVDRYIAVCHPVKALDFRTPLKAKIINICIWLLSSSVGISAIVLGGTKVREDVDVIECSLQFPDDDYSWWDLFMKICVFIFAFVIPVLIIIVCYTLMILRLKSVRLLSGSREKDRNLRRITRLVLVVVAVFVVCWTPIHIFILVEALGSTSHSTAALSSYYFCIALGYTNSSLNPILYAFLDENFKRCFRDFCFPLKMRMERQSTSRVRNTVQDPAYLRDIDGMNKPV

Compound	A1 radioligand binding inhibition (Human δ-opioid (DOP))	A2 radioligand binding inhibition (Human κ-Opioid (KOP))	A3 radioligand binding inhibition (Human Melanocortin (MC3))	A4 radioligand binding inhibition (Human Melanocortin (MC4))	A5 radioligand binding inhibition (Human melanocortin (MC5))	A6 radioligand binding inhibition [1]	A7 radioligand binding inhibition (Human μ-opioid (MOP))	A8 radioligand binding inhibition (Human neurokinin (NK1))	A9 radioligand binding inhibition [2]	A10 radioligand binding inhibition (Human opioid (ORL1))	A11 radioligand binding inhibition (Mouse urotensin (mUR2))
CO[C@H]1[C@H](O)[C@@H](COCc2ccc(-c3ccccc3)cc2)OC(OCc2ccc(-c3ccccc3)cc2)[C@@H]1NC(=O)CCNC(=N)N (stereo partly shown) [compound 52]	− (“−” indicates less than 50% inhibition at 10 μM)	− (“−” indicates less than 50% inhibition at 10 μM)	+ (“+” indicates greater than 50% inhibition at 10 μM)	+ (“+” indicates greater than 50% inhibition at 10 μM)	+ (“+” indicates greater than 50% inhibition at 10 μM)	+ (“+” indicates greater than 50% inhibition at 10 μM)	+ (“+” indicates greater than 50% inhibition at 10 μM)	+ (“+” indicates greater than 50% inhibition at 10 μM)	− (“−” indicates less than 50% inhibition at 10 μM)	+ (“+” indicates greater than 50% inhibition at 10 μM)	− (“−” indicates less than 50% inhibition at 10 μM)
CO[C@H]1[C@H](O)[C@@H](COCc2ccc(-c3ccccc3)cc2)OC(OCc2ccc(-c3ccccc3)cc2)[C@@H]1NC(=O)CCCN (stereo partly shown) [compound 53]	− (“−” indicates less than 50% inhibition at 10 μM)	− (“−” indicates less than 50% inhibition at 10 μM)	− (“−” indicates less than 50% inhibition at 10 μM)	− (“−” indicates less than 50% inhibition at 10 μM)	− (“−” indicates less than 50% inhibition at 10 μM)	+ (“+” indicates greater than 50% inhibition at 10 μM)	− (“−” indicates less than 50% inhibition at 10 μM)	− (“−” indicates less than 50% inhibition at 10 μM)	− (“−” indicates less than 50% inhibition at 10 μM)	− (“−” indicates less than 50% inhibition at 10 μM)	− (“−” indicates less than 50% inhibition at 10 μM)
CO[C@H]1[C@H](O)[C@@H](COCc2ccc(-c3ccccc3)cc2)OC(OCc2ccc(-c3ccccc3)cc2)[C@@H]1NC(=O)CCCNC(=N)N (stereo partly shown) [compound 54]	− (“−” indicates less than 50% inhibition at 10 μM)	− (“−” indicates less than 50% inhibition at 10 μM)	+ (“+” indicates greater than 50% inhibition at 10 μM)	+ (“+” indicates greater than 50% inhibition at 10 μM)	+ (“+” indicates greater than 50% inhibition at 10 μM)	+ (“+” indicates greater than 50% inhibition at 10 μM)	+ (“+” indicates greater than 50% inhibition at 10 μM)	+ (“+” indicates greater than 50% inhibition at 10 μM)	− (“−” indicates less than 50% inhibition at 10 μM)	+ (“+” indicates greater than 50% inhibition at 10 μM)	− (“−” indicates less than 50% inhibition at 10 μM)
CO[C@H]1[C@H](O)[C@@H](COCc2ccc3ccccc3c2)OC(OCc2ccc(-c3ccccc3)cc2)[C@@H]1NC(=O)CNC(=N)N (stereo partly shown) [compound 55]	− (“−” indicates less than 50% inhibition at 10 μM)	+ (“+” indicates greater than 50% inhibition at 10 μM)	+ (“+” indicates greater than 50% inhibition at 10 μM)	+ (“+” indicates greater than 50% inhibition at 10 μM)	+ (“+” indicates greater than 50% inhibition at 10 μM)	+ (“+” indicates greater than 50% inhibition at 10 μM)	+ (“+” indicates greater than 50% inhibition at 10 μM)	+ (“+” indicates greater than 50% inhibition at 10 μM)	− (“−” indicates less than 50% inhibition at 10 μM)	+ (“+” indicates greater than 50% inhibition at 10 μM)	− (“−” indicates less than 50% inhibition at 10 μM)
CO[C@H]1[C@H](O)[C@@H](COCc2ccc3ccccc3c2)OC(OCc2ccc(-c3ccccc3)cc2)[C@@H]1NC(=O)CCNC(=N)N (stereo partly shown) [compound 56]	− (“−” indicates less than 50% inhibition at 10 μM)	− (“−” indicates less than 50% inhibition at 10 μM)	− (“−” indicates less than 50% inhibition at 10 μM)	− (“−” indicates less than 50% inhibition at 10 μM)	+ (“+” indicates greater than 50% inhibition at 10 μM)	− (“−” indicates less than 50% inhibition at 10 μM)	+ (“+” indicates greater than 50% inhibition at 10 μM)	+ (“+” indicates greater than 50% inhibition at 10 μM)	− (“−” indicates less than 50% inhibition at 10 μM)	− (“−” indicates less than 50% inhibition at 10 μM)	− (“−” indicates less than 50% inhibition at 10 μM)
